# Data from paper PMC10005301, “Prediction of the n-Octanol/Water Partition Coefficients of Basic Compounds Using Multi-Parameter QSRR Models Based on IS-RPLC Retention Behavior in a Wide pH Range” (Molecules, 2023).
# Where two headings read alike, the source gives them in different places.
# Experiments:
# [1] = IS-RPLC retention on silica-based C18 column, logkw by linear solvent strength model; assay type: physicochemical
# Experimental: (§1) The retention behavior of the 42 basic compounds (Table 1) were investigated at different ratios of methanol (φ = 0.7–0.1, the interval was 0.1 or 0.05 based on the retention of the investigated solutes). The logk values were plotted versus φ for each solute at pH 7.0, pH 8.0, pH 9.0, and pH 10.0. […] The logD values of the model compounds and verification compounds calculated using Equation (S3) based on the logP and pH values are also listed in Table 1.
# The column temperature was set at 30 °C. Methanol and 20 mmol/L ammonium phosphate buffer (pH = 7.0, 8.0, 9.0, 10.0) was used as the mobile phase to perform isocratic elution. The injection volume was 10 µL and the detection wavelength for each eluted compound was set at its optimum absorption wavelength.
# (§2) At each pH, the retention time (tR) of every analyte was determined for at least four different volume fractions (φ) of methanol. All the tR values of the solutes were obtained by averaging the results of at least three independent injections. The tR value was corrected using dual-point retention time correction (DP-RTC). For a detailed description of the process, refer to our previous work. For the different hydrophobicities of the studied compounds, benzene, toluene, and benzyl alcohol were used as anchor compounds in the DP-RTC method. The dead time t0 was determined using uracil. For each solute, the logarithm of k was plotted against φ, and logkw was obtained using the Equation (S1). The logD values of the model compounds were calculated using Equation (S3), and the logD–logkw models were established with Equation (S4). The statistical analysis for the regression model was accomplished using Origin 9.4. […]
# (§3) Where, k is the capacity factor, φ is the volume fraction of organic modifier in the mobile phase, and S is the constant obtained by linear regression in the equations. […]
# The Eqs. (S1) and (S2) are the basis for the determination of logP by revered- phase liquid chromatography (RPLC) method. For dissociative solutes, it has been confirmed by many studies that the logD calibrated from logP has a better linear correlation with logkw than logP. […]
# physchem = assay: physchem
# Experimental: Multi-parameter QSRR models including logD, logkw, ne, A, and B were established using the multiple linear regression (MLR) method. In the process of linear fitting, ne, A, B, and their different combinations were introduced to optimize the models.
# The logD values reported in the literature for these four compounds were calculated using Equation (S3) with corresponding pKa, logP, and pH values.
# At each pH, the retention time (tR) of every analyte was determined for at least four different volume fractions (φ) of methanol. All the tR values of the solutes were obtained by averaging the results of at least three independent injections. The tR value was corrected using dual-point retention time correction (DP-RTC). For a detailed description of the process, refer to our previous work. For the different hydrophobicities of the studied compounds, benzene, toluene, and benzyl alcohol were used as anchor compounds in the DP-RTC method. The dead time t0 was determined using uracil. For each solute, the logarithm of k was plotted against φ, and logkw was obtained using the Equation (S1). The logD values of the model compounds were calculated using Equation (S3), and the logD–logkw models were established with Equation (S4). The statistical analysis for the regression model was accomplished using Origin 9.4.
# [2] = set-up: method as in UFZ-LSER database; conditions: hydrogen bonding parameter B; ref UFZ-LSER database; cited from earlier work
# [3] = Source text: as §1, §2, §3
# and logkw, which is usually called Collander equation [25 ]. lo g lo g wPm k n= + (S2)
# Where, m and n are constants obtained by linear regression.
# The Eqs. (S1) and (S2) are the basis for the determination of logP by revered- phase liquid chromatography (RPLC) method. For dissociative solutes, it has been confirmed by many studies that the logD calibrated from logP has a better linear correlation with logkw than logP.
# For basic compounds, the logD value can be calibrated from Eq. (S3), and the Collander equation can be rewritten into Eq. (S4). log log( )D − −+ −+= + ++P […]
# lo g ' lo g 'Dm k n= +w (S4)
# Where, pKa1, pKa2 , … p Kan are the dissociation constants of basic compounds of corresponding acids in the mobile phase, pH is the pH value of mobile phase, m′ and n′ are fitting parameters. Han et al. pointed out that although mobile phase pH and pKa of solutes will change along with the varied organic modifier fraction, the difference between a couple of relevant pH and pKa is a constant. Therefore, the used pH and pKa in this paper were both the values obtained at 100% aqueous phase. […]
# [4] = pH 7.0, methanol/20 mmol/L ammonium phosphate buffer, Welch Xtimate C18, 30 °C, 100% aqueous extrapolation
# [5] = pH 8.0, methanol/20 mmol/L ammonium phosphate buffer, Welch Xtimate C18, 30 °C, 100% aqueous extrapolation
# [6] = pH 9.0, methanol/20 mmol/L ammonium phosphate buffer, Welch Xtimate C18, 30 °C, 100% aqueous extrapolation
# [7] = pH 10.0, methanol/20 mmol/L ammonium phosphate buffer, Welch Xtimate C18, 30 °C, 100% aqueous extrapolation
# [8] = IS-RPLC retention (logkw), pH 7
# [9] = IS-RPLC retention (logkw), pH 8
# [10] = IS-RPLC retention (logkw), pH 9
# [11] = IS-RPLC retention (logkw), pH 10
# [12] = pH 9.0, calculated with literature logP, pKa and pH, Equation (S3)
# [13] = pH 7.0, calculated with literature logP, pKa and pH, Equation (S3)
# [14] = pH 8.0, calculated with literature logP, pKa and pH, Equation (S3)
# [15] = pH 10.0, calculated with literature logP, pKa and pH, Equation (S3)
"logkw-pH 7.0 [1, 4]","logkw-pH 8.0 [1, 5]","logkw-pH 9.0 [1, 6]","logkw-pH 10.0 [1, 7]",chromatographic logD (physchem; [8]),chromatographic logD (physchem; [9]),chromatographic logD (physchem; [10]),chromatographic logD (physchem; [11]),Structure (SMILES),chromatographic logD (physchem; pH 7),chromatographic logD (physchem; pH 8),chromatographic logD (physchem; pH 9),chromatographic logD (physchem; pH 10),B [2],further results
–,–,–,–,–,–,–,–,Nc1ccc([N+](=O)[O-])cc1Cl [2-Chloro-4-nitroaniline],1.99,1.96,1.93,1.92,1.41,logkw-pH 7.0 ([1]; pH 7): 2.07; logkw-pH 8.0 ([1]; pH 8): 2.13; logkw-pH 9.0 ([1]; pH 9): 2.14; logkw-pH 10.0 ([1]; pH 10): 2.18
0.80,0.66,0.82,0.88,0.7,0.54,0.17,0.04,CCC(C(N)=O)N1CCCC1=O (stereo not drawn) [Etiracetam],–,–,–,–,1.03,–
1.78,1.83,1.83,1.47,1.7,1.67,1.2,0.69,"Nc1cccc(S(=O)(=O)c2cccc(N)c2)c1 [3,3’-Sulfonyldianiline]",–,–,–,–,1.82,–
1.36,1.36,1.38,1.43,1.28,1.22,0.94,0.86,COc1nc(C)nc(N)n1 [2-Amino-4-methyl-6-methoxy-s-triazine],–,–,–,–,1.07,–
–,–,–,–,–,–,–,–,c1ccncc1 [Pyridine],–,–,–,–,–,logkw-pH 7.0 ([1]; pH 7): 0.70; logkw-pH 8.0 ([1]; pH 8): 0.92; logkw-pH 9.0 ([1]; pH 9): 1.01; logkw-pH 10.0 ([1]; pH 10): 1.05
2.22,2.28,2.29,2.28,2.14,2.1,2.13,2.08,Nc1ccc(I)cc1 [4-Iodoaniline],–,–,–,–,1.53,–
1.13,1.12,1.14,1.18,–,–,–,–,Nc1ccc(F)cc1 [4-Fluoroaniline],–,–,–,–,1.76,"logDpH 7.0 [3, 13]: 1.15; logDpH 8.0 [3, 14]: 1.15; logDpH 9.0 [3, 12]: 1.15; logDpH 10.0 [3, 15]: 1.15"
1.18,1.18,1.20,1.30,2.29,2.05,1.2,1.87,O=C(O)c1cc(O)nc(O)c1 [Citrazinic acid],–,–,–,–,1.23,–
–,–,–,–,–,–,–,–,"Nc1ccccc1N [1,2-diaminobenzene]",0.38,0.38,0.07,0.28,1.26,logkw-pH 7.0 ([1]; pH 7): 0.50; logkw-pH 8.0 ([1]; pH 8): 0.49; logkw-pH 9.0 ([1]; pH 9): 0.29; logkw-pH 10.0 ([1]; pH 10): 0.60
1.36,1.36,1.38,1.43,1.27,1.22,0.95,0.88,"Nc1ncncn1 [2-Amino-1,3,5-triazine]",–,–,–,–,1.00,–
0.17,0.07,−0.16,0.21,–,–,–,–,"Nc1cccc(N)c1 [1,3-diaminobenzene]",0.03,-0.02,-0.41,-0.15,1.28,–
0.97,1.61,2.13,2.44,–,–,–,–,"CN(C)Cc1ccccc1 [N, N-Dimethylbenzylamine]",–,–,–,–,0.67,"logDpH 7.0 [3, 13]: 0.17; logDpH 8.0 [3, 14]: 1.12; logDpH 9.0 [3, 12]: 1.77; logDpH 10.0 [3, 15]: 1.95"
−0.53,−0.39,−0.34,−0.16,–,–,–,–,c1c[nH]cn1 [Imidazole],–,–,–,–,0.71,–
−0.39,−0.38,−0.27,−0.15,-0.52,-0.46,-0.84,-0.89,"O=C(n1ccnc1)n1ccnc1 [1,1’-Carbonyldiimidazole]",–,–,–,–,1.47,–

Structure (SMILES),"logkw-pH 7.0 [1, 4]","logkw-pH 8.0 [1, 5]","logkw-pH 9.0 [1, 6]","logkw-pH 10.0 [1, 7]",chromatographic logD (physchem; [8]),chromatographic logD (physchem; [9]),chromatographic logD (physchem; [10]),chromatographic logD (physchem; [11]),chromatographic logD (physchem; pH 7),chromatographic logD (physchem; pH 8),chromatographic logD (physchem; pH 9),chromatographic logD (physchem; pH 10),B [2],further results
"Nc1ccc([N+](=O)[O-])cc1[N+](=O)[O-] [2,4-Dinitroaniline]",1.80,1.86,1.78,1.92,–,–,–,–,1.71,1.69,1.58,1.64,1.44,–
Cc1c[nH]cn1 [4-Methylimidazole],–,–,–,–,-0.54,0.06,0.08,0.07,–,–,–,–,0.64,logkw-pH 7.0 ([1]; pH 7): −0.08; logkw-pH 8.0 ([1]; pH 8): 0.19; logkw-pH 9.0 ([1]; pH 9): 0.32; logkw-pH 10.0 ([1]; pH 10): 0.39
"Nc1c(Cl)cc([N+](=O)[O-])cc1[N+](=O)[O-] [2-Chloro-4,6-dinitroaniline]",2.19,2.25,2.26,2.30,–,–,–,–,2.11,2.07,1.99,1.97,1.56,–
Cc1cc([N+](=O)[O-])ccc1N [2-Methyl-4-nitroaniline],1.76,1.79,1.46,1.84,–,–,–,–,1.67,1.63,1.31,1.6,1.22,–
Nc1ccccc1 [Aniline],0.96,0.95,0.97,1.02,–,–,–,–,–,–,–,–,1.86,"logDpH 7.0 ([3]; pH 7): 0.90; logDpH 8.0 ([3]; pH 8): 0.90; logDpH 9.0 [3, 12]: 0.90; logDpH 10.0 ([3]; pH 10): 0.90"
Cc1ccccn1 [2-Picoline],1.31,1.32,1.34,1.36,–,–,–,–,–,–,–,–,0.60,logDpH 7.0 ([3]; pH 7): 1.05; logDpH 8.0 ([3]; pH 8): 1.09; logDpH 9.0 ([3]; pH 9): 1.09; logDpH 10.0 ([3]; pH 10): 1.09
